Measured values as given in article PMC8267671, “Midazolam’s Effects on Delayed-Rectifier K^+ Current and Intermediate-Conductance Ca^2+-Activated K^+ Channel in Jurkat T-lymphocytes” (International Journal of Molecular Sciences, 2021).

Legend:
Assay type in all cases: cell-based
[1] = target: T1, IKCa channel (KCa3.1) (Homo sapiens, UniProt O15554); assay: cell-attached single-channel recording; […] DCEBIO raised open probability in presence of MDZ
T1 construct: gene KCNN4; native channel in Jurkat T-lymphocytes
T1 sequence (O15554 whole entry): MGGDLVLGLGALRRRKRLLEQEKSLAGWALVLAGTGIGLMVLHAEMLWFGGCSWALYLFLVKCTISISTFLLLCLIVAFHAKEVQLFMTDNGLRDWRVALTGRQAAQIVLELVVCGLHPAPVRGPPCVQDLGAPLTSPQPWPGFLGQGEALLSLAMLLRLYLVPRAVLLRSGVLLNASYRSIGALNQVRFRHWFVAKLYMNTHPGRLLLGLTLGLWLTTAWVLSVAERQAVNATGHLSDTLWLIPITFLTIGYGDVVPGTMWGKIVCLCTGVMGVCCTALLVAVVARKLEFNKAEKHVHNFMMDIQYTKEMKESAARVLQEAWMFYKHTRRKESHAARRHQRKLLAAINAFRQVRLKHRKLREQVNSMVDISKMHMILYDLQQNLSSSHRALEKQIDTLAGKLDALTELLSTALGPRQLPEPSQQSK

[2] = target: T2, KV1.3 (delayed-rectifier K+ channel, IK(DR)) (Homo sapiens, UniProt P22001); assay: whole-cell patch clamp of native IK(DR), concentration-response (kinetic KD […])
T2 construct: gene KCNA3; native channel in Jurkat T-lymphocytes
T2 sequence (P22001 whole entry): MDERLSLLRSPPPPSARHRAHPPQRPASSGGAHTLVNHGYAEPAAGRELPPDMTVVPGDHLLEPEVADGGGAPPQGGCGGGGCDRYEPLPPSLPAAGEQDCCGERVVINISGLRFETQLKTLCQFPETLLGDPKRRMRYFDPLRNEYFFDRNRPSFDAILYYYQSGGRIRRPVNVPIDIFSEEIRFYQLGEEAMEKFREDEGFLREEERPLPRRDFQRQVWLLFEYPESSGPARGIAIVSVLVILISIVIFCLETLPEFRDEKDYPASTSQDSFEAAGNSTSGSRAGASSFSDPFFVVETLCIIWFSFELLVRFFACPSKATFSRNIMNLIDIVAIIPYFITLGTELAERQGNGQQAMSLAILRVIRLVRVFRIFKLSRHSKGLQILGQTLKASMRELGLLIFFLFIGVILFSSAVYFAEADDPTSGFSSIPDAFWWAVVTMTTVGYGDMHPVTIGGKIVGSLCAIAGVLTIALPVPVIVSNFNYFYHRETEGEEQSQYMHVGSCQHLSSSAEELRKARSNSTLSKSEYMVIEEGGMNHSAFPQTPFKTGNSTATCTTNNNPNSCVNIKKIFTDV

[3] = target: T1, IKCa channel (KCa3.1); assay: cell-attached single-channel recording; open probability decreased at […]; settings: read-out: % decrease of open probability at 30 μM

SMILES | cell-attached single-channel recording; 3 μM DCEBIO raised open probability in p [1] | IC50 [2] [µM] | inhibition at 30 µM [3] [%]
CCn1c(=O)[nH]c2cc(Cl)c(Cl)cc21 [DCEBIO, 5,6-dichloro-1-ethyl-1,3-dihydro-2H-benzimidazol-2-one] | 0.121 ± 0.006 open probability (with 3 µM DCEBIO plus 30 µM MDZ) | – | –
Cc1ncc2n1-c1ccc(Cl)cc1C(c1ccccc1F)=NC2 [MDZ, 8-chloro-6-(2-fluorophenyl)-1-methyl-4H-imidazo [1,5-a][1,4] benzodiazepine] | – | 5.87 | 85.7 ± 2.5
